Numbers after ± are expanded uncertainties.
Tests used:
[1] = refractive index (Na D-line) (dimensionless); conditions: 100 kPa, Liquid, Standard Abbe refractometry
[2] = 100 kPa, Liquid; for viscosity: Capillary tube (Ostwald / Ubbelohde) method; for mass density: Vibrating tube method
[3] = relative permittivity at various frequencies (dimensionless); conditions: 100 kPa, Liquid, Frequency=30 MHz, Parallel plate capacitor
[4] = relative permittivity at various frequencies (dimensionless); xn = mol fraction of the nth substance listed; conditions: 100 kPa, Liquid, Frequency=30 MHz, Parallel plate capacitor, x1 = 1
[5] = refractive index (Na D-line) (dimensionless); xn = mol fraction of the nth substance listed; conditions: 100 kPa, Liquid, Standard Abbe refractometry, x1 = 1
[6] = xn = mol fraction of the nth substance listed; conditions: 100 kPa, Liquid, x1 = 1; for viscosity: Capillary tube (Ostwald / Ubbelohde) method; for mass density: Vibrating tube method

| Compound | refractive index ([1]; 293.15 K) | refractive index ([1]; 298.15 K) | refractive index ([1]; 303.15 K) | viscosity ([2]; 293.15 K) | mass density ([2]; 293.15 K) | viscosity ([2]; 298.15 K) | mass density ([2]; 298.15 K) | viscosity ([2]; 303.15 K) | mass density ([2]; 303.15 K) | relative permittivity ([3]; 293.15 K) | relative permittivity ([3]; 298.15 K) | relative permittivity ([3]; 303.15 K) | further results |
| --- | --- | --- | --- | --- | --- | --- | --- | --- | --- | --- | --- | --- | --- |
| CO [methanol] | 1.32866 ± 0.004 | 1.32682 ± 0.004 | 1.32444 ± 0.004 | 0.585 ± 0.012 mPa·s | 791.414 ± 1.9 kg/m3 | 0.545 ± 0.011 mPa·s | 786.716 ± 1.9 kg/m3 | 0.508 ± 0.011 mPa·s | 782.032 ± 1.9 kg/m3 | 33.6 ± 0.67 | 32.62 ± 0.65 | 31.67 ± 0.63 | – |
| NC1CCCCC1 [cyclohexylamine] | 1.45934 ± 0.0044 | 1.45663 ± 0.0044 | 1.45325 ± 0.0044 | 2.142 ± 0.046 mPa·s | 866.86 ± 2.1 kg/m3 | 1.908 ± 0.041 mPa·s | 862.315 ± 2.1 kg/m3 | 1.697 ± 0.036 mPa·s | 857.774 ± 2.1 kg/m3 | 4.65 ± 0.09 | 4.56 ± 0.09 | 4.47 ± 0.09 | – |
| CO [methanol] + NC1CCCCC1 | – | – | – | – | – | – | – | – | – | – | – | – | relative permittivity ([4]; 293.15 K): 33.6 ± 0.67; relative permittivity ([4]; 298.15 K): 32.62 ± 0.65; relative permittivity ([4]; 303.15 K): 31.67 ± 0.63; refractive index ([5]; 293.15 K): 1.32866 ± 0.004; refractive index ([5]; 298.15 K): 1.32682 ± 0.004; refractive index ([5]; 303.15 K): 1.32444 ± 0.004; viscosity ([6]; 293.15 K): 0.585 ± 0.012 mPa·s; mass density ([6]; 293.15 K): 791.414 ± 1.9 kg/m3; viscosity ([6]; 298.15 K): 0.545 ± 0.011 mPa·s; mass density ([6]; 298.15 K): 786.716 ± 1.9 kg/m3; viscosity ([6]; 303.15 K): 0.508 ± 0.011 mPa·s; mass density ([6]; 303.15 K): 782.032 ± 1.9 kg/m3 |

— the NIST ThermoML archive (doi:10.1016/j.tca.2016.03.002)
